Reference: the supplement of paper PMC10307832

Assays:
Experiment in all cases: relative viability (nuclei count vs DMSO), 5 days (fraction); higher = more cells survive
MLN4924 + Trametinib = compound: NS(=O)(=O)OC[C@@H]1C[C@@H](n2ccc3c(N[C@H]4CCc5ccccc54)ncnc32)C[C@@H]1O [MLN4924] + CC(=O)Nc1cccc(-n2c(=O)n(C3CC3)c(=O)c3c(Nc4ccc(I)cc4F)n(C)c(=O)c(C)c32)c1 [Trametinib] (partner 0.02 µM)
Method in brief: (§1)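 Relative viability was taken as the ratio of nuclei in treated wells to nuclei in vehicle wells. Lung cancer cell lines in 1536-well plates received compounds by pin tool one day after seeding, either one drug alone or a fixed anchor-drug dose plus five library-drug doses (not always all listed) in √10 steps. Nuclei were counted on 4× images after 5 days of treatment, and values are medians of duplicate plates.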

Carboplatin + Luminespib = compound: C1CC(C1)(C(=O)O)C(=O)O.[NH2-].[NH2-].[Pt+2] [Carboplatin] + CCNC(=O)c1noc(-c2cc(C(C)C)c(O)cc2O)c1-c1ccc(CN2CCOCC2)cc1 [Luminespib] (partner 0.01 µM)
Method in brief: as §1

Carboplatin + Pictilisib = compound: C1CC(C1)(C(=O)O)C(=O)O.[NH2-].[NH2-].[Pt+2] [Carboplatin] + CS(=O)(=O)N1CCN(Cc2cc3nc(-c4cccc5[nH]ncc45)nc(N4CCOCC4)c3s2)CC1 [Pictilisib] (partner 1 µM)
Method in brief: as §1

Carboplatin + Bortezomib = compound: C1CC(C1)(C(=O)O)C(=O)O.[NH2-].[NH2-].[Pt+2] [Carboplatin] + CC(C)C[C@H](NC(=O)[C@H](Cc1ccccc1)NC(=O)c1cnccn1)B(O)O [Bortezomib] (partner 0.002 µM)
Method in brief: as §1

## NCI-H2342
MLN4924 + Trametinib; first compound 0.04 µM
  relative viability: 0.834
MLN4924 + Trametinib; first compound 0.1265 µM
  relative viability: 0.757
MLN4924 + Trametinib; first compound 0.4 µM
  relative viability: 0.759
MLN4924 + Trametinib; first compound 1.265 µM
  relative viability: 0.727
MLN4924 + Trametinib; first compound 4 µM
  relative viability: 0.54
Carboplatin + Luminespib; first compound 0.08 µM
  relative viability: 0.898
Carboplatin + Luminespib; first compound 0.253 µM
  relative viability: 0.789
Carboplatin + Luminespib; first compound 0.8 µM
  relative viability: 0.68
Carboplatin + Luminespib; first compound 2.53 µM
  relative viability: 0.788
Carboplatin + Luminespib; first compound 8 µM
  relative viability: 0.608

## NCI-H2087
MLN4924 + Trametinib; first compound 0.04 µM
  relative viability: 0.23
MLN4924 + Trametinib; first compound 0.1265 µM
  relative viability: 0.217
MLN4924 + Trametinib; first compound 0.4 µM
  relative viability: 0.291
MLN4924 + Trametinib; first compound 1.265 µM
  relative viability: 0.129
MLN4924 + Trametinib; first compound 4 µM
  relative viability: 0.0965
Carboplatin + Luminespib; first compound 0.08 µM
  relative viability: 0.158
Carboplatin + Luminespib; first compound 0.253 µM
  relative viability: 0.168
Carboplatin + Luminespib; first compound 0.8 µM
  relative viability: 0.121
Carboplatin + Luminespib; first compound 2.53 µM
  relative viability: 0.138
Carboplatin + Luminespib; first compound 8 µM
  relative viability: 0.165
Carboplatin + Pictilisib; first compound 0.08 µM
  relative viability: 0.968
Carboplatin + Pictilisib; first compound 0.253 µM
  relative viability: 0.868
Carboplatin + Pictilisib; first compound 0.8 µM
  relative viability: 0.859
Carboplatin + Pictilisib; first compound 2.53 µM
  relative viability: 0.826
Carboplatin + Pictilisib; first compound 8 µM
  relative viability: 0.504
Carboplatin + Bortezomib; first compound 0.08 µM
  relative viability: 0.945
Carboplatin + Bortezomib; first compound 0.253 µM
  relative viability: 0.699
Carboplatin + Bortezomib; first compound 0.8 µM
  relative viability: 0.781
Carboplatin + Bortezomib; first compound 2.53 µM
  relative viability: 0.833
Carboplatin + Bortezomib; first compound 8 µM
  relative viability: 0.521

## NCI-H596
MLN4924 + Trametinib; first compound 0.04 µM
  relative viability: 0.799
MLN4924 + Trametinib; first compound 0.1265 µM
  relative viability: 0.833
MLN4924 + Trametinib; first compound 0.4 µM
  relative viability: 0.727
MLN4924 + Trametinib; first compound 1.265 µM
  relative viability: 0.649
MLN4924 + Trametinib; first compound 4 µM
  relative viability: 0.443
Carboplatin + Luminespib; first compound 0.08 µM
  relative viability: 1.02
Carboplatin + Luminespib; first compound 0.253 µM
  relative viability: 1
Carboplatin + Luminespib; first compound 0.8 µM
  relative viability: 0.4
Carboplatin + Luminespib; first compound 2.53 µM
  relative viability: 0.342
Carboplatin + Luminespib; first compound 8 µM
  relative viability: 0.746
Carboplatin + Pictilisib; first compound 0.08 µM
  relative viability: 0.455
Carboplatin + Pictilisib; first compound 0.253 µM
  relative viability: 0.36
Carboplatin + Pictilisib; first compound 0.8 µM
  relative viability: 0.389
Carboplatin + Pictilisib; first compound 2.53 µM
  relative viability: 0.333
Carboplatin + Pictilisib; first compound 8 µM
  relative viability: 0.373
Carboplatin + Bortezomib; first compound 0.08 µM
  relative viability: 1.21
Carboplatin + Bortezomib; first compound 0.253 µM
  relative viability: 1.27
Carboplatin + Bortezomib; first compound 0.8 µM
  relative viability: 0.989
Carboplatin + Bortezomib; first compound 2.53 µM
  relative viability: 0.886
Carboplatin + Bortezomib; first compound 8 µM
  relative viability: 0.73

## ChaGo-K-1
MLN4924 + Trametinib; first compound 0.04 µM
  relative viability: 0.763
MLN4924 + Trametinib; first compound 0.1265 µM
  relative viability: 0.411
MLN4924 + Trametinib; first compound 0.4 µM
  relative viability: 0.392
MLN4924 + Trametinib; first compound 1.265 µM
  relative viability: 0.186
MLN4924 + Trametinib; first compound 4 µM
  relative viability: 0.174
Carboplatin + Luminespib; first compound 0.08 µM
  relative viability: 0.774
Carboplatin + Luminespib; first compound 0.253 µM
  relative viability: 0.589
Carboplatin + Luminespib; first compound 0.8 µM
  relative viability: 0.399
Carboplatin + Luminespib; first compound 2.53 µM
  relative viability: 0.398
Carboplatin + Luminespib; first compound 8 µM
  relative viability: 0.297
Carboplatin + Pictilisib; first compound 0.08 µM
  relative viability: 1.01
Carboplatin + Pictilisib; first compound 0.253 µM
  relative viability: 0.713
Carboplatin + Pictilisib; first compound 0.8 µM
  relative viability: 0.615
Carboplatin + Pictilisib; first compound 2.53 µM
  relative viability: 0.463
Carboplatin + Pictilisib; first compound 8 µM
  relative viability: 0.376
Carboplatin + Bortezomib; first compound 0.08 µM
  relative viability: 1.08
Carboplatin + Bortezomib; first compound 0.253 µM
  relative viability: 0.837
Carboplatin + Bortezomib; first compound 0.8 µM
  relative viability: 0.916
Carboplatin + Bortezomib; first compound 2.53 µM
  relative viability: 0.786
Carboplatin + Bortezomib; first compound 8 µM
  relative viability: 0.406

## SW 1573
MLN4924 + Trametinib; first compound 0.04 µM
  relative viability: 0.586
MLN4924 + Trametinib; first compound 0.1265 µM
  relative viability: 0.441
MLN4924 + Trametinib; first compound 0.4 µM
  relative viability: 0.14
MLN4924 + Trametinib; first compound 1.265 µM
  relative viability: 0.0868
MLN4924 + Trametinib; first compound 4 µM
  relative viability: 0.0758
Carboplatin + Luminespib; first compound 0.08 µM
  relative viability: 0.298
Carboplatin + Luminespib; first compound 0.253 µM
  relative viability: 0.293
Carboplatin + Luminespib; first compound 0.8 µM
  relative viability: 0.344
Carboplatin + Luminespib; first compound 2.53 µM
  relative viability: 0.579
Carboplatin + Luminespib; first compound 8 µM
  relative viability: 0.222
Carboplatin + Pictilisib; first compound 0.08 µM
  relative viability: 0.408
Carboplatin + Pictilisib; first compound 0.253 µM
  relative viability: 0.603
Carboplatin + Pictilisib; first compound 0.8 µM
  relative viability: 0.492
Carboplatin + Pictilisib; first compound 2.53 µM
  relative viability: 0.555
Carboplatin + Pictilisib; first compound 8 µM
  relative viability: 0.399
Carboplatin + Bortezomib; first compound 0.08 µM
  relative viability: 1.09
Carboplatin + Bortezomib; first compound 0.253 µM
  relative viability: 1
Carboplatin + Bortezomib; first compound 0.8 µM
  relative viability: 1.12
Carboplatin + Bortezomib; first compound 2.53 µM
  relative viability: 1.05
Carboplatin + Bortezomib; first compound 8 µM
  relative viability: 0.808

## LCLC-97TM1
MLN4924 + Trametinib; first compound 0.04 µM
  relative viability: 0.208
MLN4924 + Trametinib; first compound 0.1265 µM
  relative viability: 0.214
MLN4924 + Trametinib; first compound 0.4 µM
  relative viability: 0.157
MLN4924 + Trametinib; first compound 1.265 µM
  relative viability: 0.0691
MLN4924 + Trametinib; first compound 4 µM
  relative viability: 0.0607
Carboplatin + Luminespib; first compound 0.08 µM
  relative viability: 0.726
Carboplatin + Luminespib; first compound 0.253 µM
  relative viability: 0.667
Carboplatin + Luminespib; first compound 0.8 µM
  relative viability: 0.65
Carboplatin + Luminespib; first compound 2.53 µM
  relative viability: 0.732
Carboplatin + Luminespib; first compound 8 µM
  relative viability: 0.722
Carboplatin + Pictilisib; first compound 0.08 µM
  relative viability: 0.209
Carboplatin + Pictilisib; first compound 0.8 µM
  relative viability: 0.233
Carboplatin + Pictilisib; first compound 2.53 µM
  relative viability: 0.194
Carboplatin + Pictilisib; first compound 8 µM
  relative viability: 0.18
Carboplatin + Bortezomib; first compound 0.08 µM
  relative viability: 0.723
Carboplatin + Bortezomib; first compound 0.253 µM
  relative viability: 0.62
Carboplatin + Bortezomib; first compound 0.8 µM
  relative viability: 1.25
Carboplatin + Bortezomib; first compound 2.53 µM
  relative viability: 0.844
Carboplatin + Bortezomib; first compound 8 µM
  relative viability: 0.375

## HCC-366
MLN4924 + Trametinib; first compound 0.04 µM
  relative viability: 0.369
MLN4924 + Trametinib; first compound 0.1265 µM
  relative viability: 0.376
MLN4924 + Trametinib; first compound 0.4 µM
  relative viability: 0.514
MLN4924 + Trametinib; first compound 1.265 µM
  relative viability: 0.305
MLN4924 + Trametinib; first compound 4 µM
  relative viability: 0.0404
Carboplatin + Pictilisib; first compound 0.08 µM
  relative viability: 0.138
Carboplatin + Pictilisib; first compound 0.253 µM
  relative viability: 0.128
Carboplatin + Pictilisib; first compound 0.8 µM
  relative viability: 0.0961
Carboplatin + Pictilisib; first compound 2.53 µM
  relative viability: 0.158
Carboplatin + Pictilisib; first compound 8 µM
  relative viability: 0.106
Carboplatin + Bortezomib; first compound 0.08 µM
  relative viability: 1.08
Carboplatin + Bortezomib; first compound 0.253 µM
  relative viability: 1.05
Carboplatin + Bortezomib; first compound 0.8 µM
  relative viability: 1.09
Carboplatin + Bortezomib; first compound 2.53 µM
  relative viability: 0.957
Carboplatin + Bortezomib; first compound 8 µM
  relative viability: 0.685

## NCI-H522
MLN4924 + Trametinib; first compound 0.04 µM
  relative viability: 0.638
MLN4924 + Trametinib; first compound 0.1265 µM
  relative viability: 0.696
MLN4924 + Trametinib; first compound 0.4 µM
  relative viability: 0.691
MLN4924 + Trametinib; first compound 1.265 µM
  relative viability: 0.314
MLN4924 + Trametinib; first compound 4 µM
  relative viability: 0.386
Carboplatin + Luminespib; first compound 0.08 µM
  relative viability: 1.05
Carboplatin + Luminespib; first compound 0.253 µM
  relative viability: 1.38
Carboplatin + Luminespib; first compound 0.8 µM
  relative viability: 0.851
Carboplatin + Luminespib; first compound 2.53 µM
  relative viability: 0.904
Carboplatin + Luminespib; first compound 8 µM
  relative viability: 0.835

## Calu-6
Carboplatin + Pictilisib; first compound 0.08 µM
  relative viability: 0.914
Carboplatin + Pictilisib; first compound 0.253 µM
  relative viability: 0.906
Carboplatin + Pictilisib; first compound 0.8 µM
  relative viability: 0.823
Carboplatin + Pictilisib; first compound 2.53 µM
  relative viability: 0.739
Carboplatin + Pictilisib; first compound 8 µM
  relative viability: 0.486
Carboplatin + Bortezomib; first compound 0.08 µM
  relative viability: 0.927
Carboplatin + Bortezomib; first compound 0.253 µM
  relative viability: 0.974
Carboplatin + Bortezomib; first compound 0.8 µM
  relative viability: 0.925
Carboplatin + Bortezomib; first compound 2.53 µM
  relative viability: 0.823
Carboplatin + Bortezomib; first compound 8 µM
  relative viability: 0.496

## HCC-78
MLN4924 + Trametinib; first compound 0.04 µM
  relative viability: 0.798
MLN4924 + Trametinib; first compound 0.1265 µM
  relative viability: 0.509
MLN4924 + Trametinib; first compound 0.4 µM
  relative viability: 1.13
MLN4924 + Trametinib; first compound 1.265 µM
  relative viability: 0.268
MLN4924 + Trametinib; first compound 4 µM
  relative viability: 0.243
Carboplatin + Pictilisib; first compound 0.08 µM
  relative viability: 0.213
Carboplatin + Pictilisib; first compound 0.253 µM
  relative viability: 0.228
Carboplatin + Pictilisib; first compound 0.8 µM
  relative viability: 0.194
Carboplatin + Pictilisib; first compound 2.53 µM
  relative viability: 0.217
Carboplatin + Pictilisib; first compound 8 µM
  relative viability: 0.21
Carboplatin + Bortezomib; first compound 0.08 µM
  relative viability: 0.561
Carboplatin + Bortezomib; first compound 0.253 µM
  relative viability: 0.502
Carboplatin + Bortezomib; first compound 0.8 µM
  relative viability: 0.383
Carboplatin + Bortezomib; first compound 2.53 µM
  relative viability: 0.497
Carboplatin + Bortezomib; first compound 8 µM
  relative viability: 0.508
